Reference: the NIST ThermoML archive (doi:10.1021/je060271a)
Values joined by “and” are separate entries in the source; they are usually repeats but may differ in a detail not shown here. Equal entries are not always repeated.

Conditions: 283.16 K, Liquid, Vibrating tube method

CCCCCC(=O)OCC(COC(=O)CCCCC)(COC(=O)CCCCC)COC(=O)CCCCC [pentaerythritol tetrahexanoate]
Conditions | mass density
94 kPa | 1004.3 kg/m3
94.1 kPa | 1004.2 kg/m3 and 1004.1 kg/m3
94.2 kPa | 1004.2 kg/m3
94.3 kPa | 1004.2 kg/m3
94.5 kPa | 1004.2 kg/m3 and 1004.1 kg/m3
94.7 kPa | 1004.1 kg/m3
94.8 kPa | 1004.2 kg/m3
95 kPa | 1004.1 kg/m3 and 1004.2 kg/m3
95.2 kPa | 1004.1 kg/m3 and 1004.3 kg/m3
95.4 kPa | 1004.2 kg/m3 and 1004.1 kg/m3
95.5 kPa | 1004.2 kg/m3 and 1004.1 kg/m3
95.9 kPa | 1004.2 kg/m3
96.1 kPa | 1004.2 kg/m3
96.9 kPa | 1004.1 kg/m3
97.1 kPa | 1004.3 kg/m3
97.4 kPa | 1004.3 kg/m3
97.8 kPa | 1004.1 kg/m3
98.1 kPa | 1004.2 kg/m3
98.3 kPa | 1004.4 kg/m3
98.5 kPa | 1004.1 kg/m3
98.6 kPa | 1004.2 kg/m3
99 kPa | 1004.2 kg/m3
99.3 kPa | 1004.2 kg/m3
99.5 kPa | 1004.2 kg/m3
99.7 kPa | 1004.2 kg/m3 and 1004.1 kg/m3
100 kPa | 1004.1 kg/m3 and 1004.2 kg/m3
100.2 kPa | 1004.2 kg/m3 and 1004.3 kg/m3
100.4 kPa | 1004.2 kg/m3
100.5 kPa | 1004.2 kg/m3
100.7 kPa | 1004.1 kg/m3
101 kPa | 1004.2 kg/m3 and 1004.1 kg/m3
101.1 kPa | 1004.2 kg/m3
101.2 kPa | 1004.3 kg/m3 and 1004.1 kg/m3
101.4 kPa | 1004.3 kg/m3 and 1004.1 kg/m3
101.7 kPa | 1004.2 kg/m3
102.2 kPa | 1004.1 kg/m3
102.4 kPa | 1004.2 kg/m3
102.6 kPa | 1004.2 kg/m3 and 1004.1 kg/m3
102.8 kPa | 1004.3 kg/m3
103.1 kPa | 1004.1 kg/m3 and 1004.2 kg/m3
103.3 kPa | 1004.2 kg/m3
103.4 kPa | 1004.1 kg/m3
103.6 kPa | 1004.1 kg/m3
104 kPa | 1004.1 kg/m3 and 1004.3 kg/m3
104.1 kPa | 1004.1 kg/m3
104.3 kPa | 1004.2 kg/m3
104.5 kPa | 1004.1 kg/m3 and 1004.2 kg/m3
105 kPa | 1004.2 kg/m3
105.2 kPa | 1004.1 kg/m3
105.3 kPa | 1004.2 kg/m3
105.5 kPa | 1004.1 kg/m3
105.8 kPa | 1004.2 kg/m3 and 1004.3 kg/m3
106 kPa | 1004.1 kg/m3
106.2 kPa | 1004.2 kg/m3
106.3 kPa | 1004.2 kg/m3
106.4 kPa | 1004.1 kg/m3
106.5 kPa | 1004.2 kg/m3
106.7 kPa | 1004.3 kg/m3
106.9 kPa | 1004.2 kg/m3
107 kPa | 1004.2 kg/m3 and 1004.1 kg/m3
107.2 kPa | 1004.1 kg/m3
107.9 kPa | 1004.2 kg/m3 and 1004.3 kg/m3
108.2 kPa | 1004.2 kg/m3
108.6 kPa | 1004.2 kg/m3
108.7 kPa | 1004.1 kg/m3 and 1004.2 kg/m3
108.9 kPa | 1004.2 kg/m3
109.4 kPa | 1004.2 kg/m3
109.6 kPa | 1004.2 kg/m3
109.8 kPa | 1004.1 kg/m3
109.9 kPa | 1004.2 kg/m3
110.1 kPa | 1004.2 kg/m3
110.3 kPa | 1004.2 kg/m3
110.5 kPa | 1004.1 kg/m3
110.6 kPa | 1004.4 kg/m3 and 1004.2 kg/m3
110.8 kPa | 1004.2 kg/m3
111 kPa | 1004.1 kg/m3
111.1 kPa | 1004.2 kg/m3
111.3 kPa | 1004.2 kg/m3
119.9 kPa | 1004.1 kg/m3
120.5 kPa | 1004.2 kg/m3
120.6 kPa | 1004.1 kg/m3
120.8 kPa | 1004.2 kg/m3
121 kPa | 1004.2 kg/m3 and 1004.1 kg/m3
121.1 kPa | 1004.3 kg/m3
126.7 kPa | 1004.3 kg/m3
126.9 kPa | 1004.4 kg/m3 and 1004.2 kg/m3
127 kPa | 1004.2 kg/m3
127.4 kPa | 1004.3 kg/m3
127.5 kPa | 1004.1 kg/m3
127.7 kPa | 1004.1 kg/m3
128.4 kPa | 1004.2 kg/m3
128.6 kPa | 1004.3 kg/m3
128.8 kPa | 1004.2 kg/m3
129.1 kPa | 1004.2 kg/m3
129.8 kPa | 1004.2 kg/m3 and 1004.1 kg/m3 and 1004.3 kg/m3
130.3 kPa | 1004.2 kg/m3
130.8 kPa | 1004.2 kg/m3 and 1004.1 kg/m3
131.2 kPa | 1004.3 kg/m3
131.5 kPa | 1004.2 kg/m3
131.9 kPa | 1004.2 kg/m3
132 kPa | 1004.3 kg/m3
132.2 kPa | 1004.3 kg/m3
132.4 kPa | 1004.1 kg/m3
132.6 kPa | 1004.2 kg/m3
132.7 kPa | 1004 kg/m3
133.1 kPa | 1004.2 kg/m3
133.4 kPa | 1004.2 kg/m3
133.8 kPa | 1004.2 kg/m3
145.2 kPa | 1004.2 kg/m3
145.6 kPa | 1004.2 kg/m3
146.1 kPa | 1004.2 kg/m3
147 kPa | 1004.2 kg/m3
148.7 kPa | 1004.2 kg/m3
149.2 kPa | 1004.2 kg/m3
149.4 kPa | 1004.2 kg/m3
149.8 kPa | 1004.4 kg/m3
150.1 kPa | 1004.3 kg/m3 and 1004.2 kg/m3
158.8 kPa | 1004.2 kg/m3
159 kPa | 1004.1 kg/m3
159.1 kPa | 1004.2 kg/m3
159.7 kPa | 1004.3 kg/m3
159.8 kPa | 1004.2 kg/m3
160.2 kPa | 1004.3 kg/m3
168.7 kPa | 1004.2 kg/m3
168.9 kPa | 1004.2 kg/m3
169.4 kPa | 1004.2 kg/m3
170.2 kPa | 1004.2 kg/m3
170.6 kPa | 1004.2 kg/m3
171.1 kPa | 1004 kg/m3
171.5 kPa | 1004.2 kg/m3
171.8 kPa | 1004.1 kg/m3
172.3 kPa | 1004.3 kg/m3
172.5 kPa | 1004.3 kg/m3
175.8 kPa | 1004.2 kg/m3
176.7 kPa | 1004.2 kg/m3
177 kPa | 1004.3 kg/m3
177.7 kPa | 1004.2 kg/m3
216.6 kPa | 1004.2 kg/m3
218.2 kPa | 1004.4 kg/m3
218.5 kPa | 1004.3 kg/m3
224.6 kPa | 1004.3 kg/m3
224.9 kPa | 1004.3 kg/m3
225.8 kPa | 1004.2 kg/m3
226.1 kPa | 1004.3 kg/m3
226.8 kPa | 1004.3 kg/m3
